Reference: patent publication US20080221193A1, “3-AMINO CHROMANE DERIVATIVES” (Wyeth, priority 2006, published 2008)

Key:
h5-HT Transporter = h5-HT Transporter (Homo sapiens, UniProt P31645); assay: h5-HT Transporter Function (Table 1); assay type: biochemical
h5HT1a receptor = target: T1, h5HT1a receptor (Homo sapiens, UniProt P08908); assay: cAMP RIA in CHO cells stably transfected with the h5HT1a receptor; assay type: cell-based; conditions: for EC50: agonist, forskolin-stimulated cAMP, read-out: 5-HT1A Function cAMP EC50; for IC50: antagonist, reversal of agonist 8-OH-DPAT, read-out: 5-HT1A Function cAMP IC50
T1 construct: expressed in transfected cells; host or cells: CHO cells, stably transfected
T1 sequence (P08908 1-422): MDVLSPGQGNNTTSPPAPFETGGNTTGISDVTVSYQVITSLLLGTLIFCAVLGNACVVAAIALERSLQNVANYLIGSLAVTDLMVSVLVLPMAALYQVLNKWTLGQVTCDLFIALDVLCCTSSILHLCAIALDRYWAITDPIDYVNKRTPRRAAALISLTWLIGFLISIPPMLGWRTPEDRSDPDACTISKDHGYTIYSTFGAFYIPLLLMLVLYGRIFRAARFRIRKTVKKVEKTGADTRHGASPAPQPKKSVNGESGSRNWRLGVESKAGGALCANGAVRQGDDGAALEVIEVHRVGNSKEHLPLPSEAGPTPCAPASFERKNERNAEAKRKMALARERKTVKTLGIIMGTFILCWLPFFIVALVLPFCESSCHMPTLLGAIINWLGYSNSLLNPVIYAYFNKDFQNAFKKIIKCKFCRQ
From the text: (§1) The agonist or antagonist activity at 5-HT1A receptors was established by using two different assays. The ^35S-GTPγS binding assay similar to that used by Lazareno and Birdsall (Br. J. Pharmacol., 1993, 109: 1120) was used to determine the test compound's ability to affect the binding of ^35S-GTPγS to membranes containing cloned human 5-HT1A receptors. Agonists produce an increase in binding whereas antagonists produce no increase but rather reverse the effects of the standard agonist 8-OH-DPAT. The test compound's maximum stimulatory effect is represented as the Emax, while its potency is defined by the EC50. The test compound's maximum inhibitory effect is represented as the Imax, while its potency is defined by the IC50. The second assay measured cAMP accumulation upon binding of the ligand to the 5-HT1A receptor. Antagonists block the effect of the standard agonist 8-OH-DPAT resulting in an increase in cAMP accumulation while agonists have the reverse effect. The test compound's maximum stimulatory or inhibitory effect is represented as the Emax while its potency is defined by either IC50 for an antagonist or EC50 for an agonist. [^3H]-8-OH-DPAT was used to determine maximum agonist or antagonist response in both functional assays.
Stabily transfected CHO cells were grown in DMEM containing 10% heat inactivated FBS and non-essential amino acids. The cells were plated at a density of 10(6) cells per well in a 24 well plate and incubated for 2 days in a CO2 incubator. On the second day, the media was replaced with 0.5 ml treatment buffer (DMEM+25 mM HEPES, 5 mM theophylline, 10 uM pargyline) and incubated 10 minutes at 37° C.
Wells were treated with forskolin (1 μM final conc) followed immediately by test compound (0.1 and 1 uM for initial screen) and incubated for an additional 10 min at 37° C. The reaction was terminated by removal of the media and addition of 0.5 ml ice cold assay buffer (supplied in RIA kit). Plates were stored at −20° C. prior to assessment of cAMP formation by RIA.
Compounds shown to have no agonist activities were further analyzed for ability to reverse agonist activity. In separate experiments, 6 concentrations of antagonist were preincubated for 20 minutes prior to the addition of agonist and forskolin. Cells were harvested as described. The cAMP kit was supplied by Amersham and the RIA was performed as per kit instructions.

human 5-HT1A receptors [1] = target: T2, human 5-HT1A receptors (Homo sapiens, UniProt P08908); assay: 35S-GTPγS binding assay, membranes containing cloned human 5-HT1A receptors; assay type: biochemical; conditions: read-out: 5-HT1A Function GTPγS IC50
T2 construct: expressed in transfected cells; host or cells: CHO cells, stably transfected
T2 sequence (P08908 1-422): T1 sequence (P08908 1-422)
From the text: as §1

human 5-HT1A receptors [2] = target: T2, human 5-HT1A receptors; assay: 8-OH-DPAT binding in CHO cells stably transfected with human 5HT1a receptor; conditions: displacement of [3H]8-OH-DPAT, CHO cells with human 5-HT1A; read-out: 5-HT1A Receptor Affinity Ki
Protocol: High affinity for the serotonin 5-HT1A receptor was established by testing the claimed compound's ability to displace [^3H] 8-OH-DPAT (dipropylaminotetralin) from the 5-HT1A serotonin receptor following a modification of the procedure of Hall et al., (J. Neurochem., 1985, 44: 1685) which utilizes CHO cells stably transfected with human 5-HT1A receptors.
Stabily transfected CHO cells were grown in DMEM containing 10% heat inactivated FBS and non-essential amino acids. Cells were scraped off the plate, transferred to centrifuge tubes, and washed twice by centrifugation (2000 rpm for 10 min., 4° C.) in buffer (50 mM Tris pH 7.5). The resulting pellets were aliquoted and placed at −80° C. On day of assay, the cells were thawed on ice, and resuspended in buffer. The binding assay was performed in a 96 well microtiter plate in a total volume of […].
Non-specific binding was determined in the presence of […] 5HT, final ligand concentration is 1.5 nM. Following a 30 minute incubation at room temperature, the reaction was terminated by the addition of ice cold buffer and rapid filtration through a GF/B filter presoaked for 30 minutes in 0.5% PEI. Compounds were initially tested in a single point assay to determine percent inhibition at […]. Subsequently, Ki values were determined for compounds defined to be active.

Sequence of h5-HT Transporter (P31645 whole entry): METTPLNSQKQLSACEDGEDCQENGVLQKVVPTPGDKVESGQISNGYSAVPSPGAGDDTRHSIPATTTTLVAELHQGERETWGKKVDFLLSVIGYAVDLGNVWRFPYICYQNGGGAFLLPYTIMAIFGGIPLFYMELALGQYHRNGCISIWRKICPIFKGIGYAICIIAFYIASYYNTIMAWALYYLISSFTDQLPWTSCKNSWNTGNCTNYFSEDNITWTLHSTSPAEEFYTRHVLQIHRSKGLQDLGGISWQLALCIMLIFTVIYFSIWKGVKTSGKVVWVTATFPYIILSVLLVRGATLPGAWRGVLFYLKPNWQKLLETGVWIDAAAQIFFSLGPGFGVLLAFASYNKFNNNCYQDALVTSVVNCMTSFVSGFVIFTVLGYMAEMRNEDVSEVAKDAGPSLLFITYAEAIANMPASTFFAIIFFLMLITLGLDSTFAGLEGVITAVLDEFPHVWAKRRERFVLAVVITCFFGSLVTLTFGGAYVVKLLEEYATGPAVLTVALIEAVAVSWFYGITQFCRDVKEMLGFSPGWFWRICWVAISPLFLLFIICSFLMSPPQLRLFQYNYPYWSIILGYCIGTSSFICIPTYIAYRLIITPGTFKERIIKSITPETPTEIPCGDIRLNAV

IC50 (h5-HT Transporter) [nM]	EC50 (h5HT1a receptor) [nM]	IC50 (human 5-HT1A receptors [1]) [nM]	Ki (human 5-HT1A receptors [2]) [nM]	IC50 (h5HT1a receptor) [nM]	SMILES
364	–	1180	16.9	59.8	CSc1ccc(C(N)=O)c2c1OC[C@H](N(CCCc1c[nH]c3ccc(F)cc13)C1CCC1)C2 [Example 22, (3R)-3-{cyclobutyl[3-(5-fluoro-1H-indol-3-yl)propyl]amino}-8-(methylthio)chromane-5-carboxamide]
137	–	3550	51.5	140	CNc1ccc(C(N)=O)c2c1OC[C@H](N(CCCc1c[nH]c3ccc(F)cc13)C1CCC1)C2 [Example 25, (3R)-3-{cyclobutyl[3-(5-fluoro-1H-indol-3-yl)propyl]amino}-8-(methylamino)-chromane-5-carboxamide]

Second part, the compound before the results:

SMILES	IC50 (h5-HT Transporter) [nM]	EC50 (h5HT1a receptor) [nM]	IC50 (human 5-HT1A receptors [1]) [nM]	Ki (human 5-HT1A receptors [2]) [nM]	IC50 (h5HT1a receptor) [nM]
CNC(=O)c1ccc(OC)c2c1C[C@@H](N(CCCc1c[nH]c3ccc(F)cc13)C1CCC1)CO2 [Example 16, (3R)-3-{cyclobutyl[3-(5-fluoro-1H-indol-3-yl)propyl]amino}-8-methoxychromane-5-methylcarboxamide]	55	323	738	570	–
Cc1ccc(C(N)=O)c2c1OC[C@H](N(CCCc1c[nH]c3ccc(F)cc13)C1CCC1)C2 [Example 20, (3R)-3-{cyclobutyl[3-(5-fluoro-1H-indol-3-yl)propyl]amino}-8-methylchromane-5-carboxamide]	52.2	51.8	311	4.26	–
CCc1ccc(C(N)=O)c2c1OC[C@H](N(CCCc1c[nH]c3ccc(F)cc13)C1CCC1)C2 [Example 21, (3R)-3-{cyclobutyl[3-(5-fluoro-1H-indol-3-yl)propyl]amino}-8-ethylchromane-5-carboxamide]	90.4	15.6	724	5.93	–
